This experiment deals with P388 leukemia ip, CD2F1 mice, survival T/C. Put plainly: NCI In Vivo Anticancer Drug Screen. Data for tumor model P388 Leukemia (intraperitoneal) in CD2F1 (CDF1) mice. As to conditions: endpoint: median survival time, higher = longer survival. In outline:
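Mice carrying the transplanted tumor received test compound or vehicle. Survival was recorded in each group, and the value is the treated-group measurement divided by that of the vehicle-treated control group.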

Where [1] appears, read: dose: 50.0 mg/kg/injection, schedule: Q01DX005 (ip), vehicle: Klucel (hydroxypropylcellulose) (HPC).
[2] abbreviates: dose: 100.0 mg/kg/injection, schedule: Q01DX005 (ip), vehicle: Klucel (hydroxypropylcellulose) (HPC).
The mark [3] stands for this setting: dose: 200.0 mg/kg/injection, schedule: Q01DX005 (ip), vehicle: Klucel (hydroxypropylcellulose) (HPC).
Where [4] appears, read: dose: 60.0 mg/kg/injection, schedule: Q01DX005 (ip), vehicle: saline with Tween-80.
[5] abbreviates: dose: 120.0 mg/kg/injection, schedule: Q01DX005 (ip), vehicle: saline with Tween-80.
[6] abbreviates: dose: 240.0 mg/kg/injection, schedule: Q01DX005 (ip), vehicle: saline with Tween-80.
[7] abbreviates: dose: 100.0 mg/kg/injection, schedule: Q04DX003 (ip), vehicle: saline.
Setting [8] is: dose: 200.0 mg/kg/injection, schedule: Q04DX003 (ip), vehicle: saline.
[9] abbreviates: dose: 400.0 mg/kg/injection, schedule: Q04DX003 (ip), vehicle: saline.
Where [10] appears, read: dose: 50.0 mg/kg/injection, schedule: Q01DX009 (ip), vehicle: saline.
[11] abbreviates: dose: 100.0 mg/kg/injection, schedule: Q01DX009 (ip), vehicle: saline.

Values joined by “and” are separate entries in the source; they are usually repeats but may differ in a detail not shown here. Equal values may be shown once. Inconclusive results and toxic doses are left out.

In the case of `CC(NC(=O)OCC1c2ccccc2-c2ccccc21)C(=O)O` (stereo not drawn), the T/C is 103 % of control under setting [1], 98 % of control under setting [2] and 96 % of control under setting [3].

For the compound `COc1cccc2c1C(=O)c1c(O)c3c(c(O)c1C2=O)C[C@@](O)(C(C)=O)CC3OC1CC(NC2CC(=O)N(c3ccccc3)C2=O)C(O)C(C)O1` (stereo partly drawn), the T/C is, setting by setting: (dose: 6.25 mg/kg/injection, schedule: Q04DX003 (ip), vehicle: water) 108 % of control; (dose: 12.5 mg/kg/injection, schedule: Q04DX003 (ip), vehicle: water) 103 % of control; (dose: 25.0 mg/kg/injection, schedule: Q04DX003 (ip), vehicle: water) 103 % of control; (dose: 50.0 mg/kg/injection, schedule: Q04DX003 (ip), vehicle: water) 108 % of control.

In the case of `C[C@H](CS)C(=O)N1c2ccccc2C[C@H]1C(=O)O`, the T/C reads like this: under setting [4], 101 % of control; under setting [5], 104 % of control; under setting [6], 113 % of control.

Regarding `Cc1cc(N=Cc2c(CO)cnc(C)c2O)c(N=Cc2c(CO)cnc(C)c2O)cc1C`, the T/C under setting [1] is 98 % of control; the T/C under setting [4] is 93 % of control; the T/C under setting [2] is 96 % of control; the T/C under setting [5] is 104 % of control; the T/C under setting [3] is 91 % of control; the T/C under setting [6] is 94 % of control.

Turning to `Cn1ccc(=Nc2ccc(NC(=O)c3ccc(N=c4ccn(C)c5ccc([N+](=O)[O-])cc45)cc3)cc2)cc1`, the T/C was 160 % of control (dose: 3.13 mg/kg/injection, schedule: Q01DX009 (ip), vehicle: other); 188 % of control (dose: 6.25 mg/kg/injection, schedule: Q01DX009 (ip), vehicle: other); 182 % of control (dose: 12.5 mg/kg/injection, schedule: Q01DX009 (ip), vehicle: other); 179 % of control and 220 % of control (dose: 25.0 mg/kg/injection, schedule: Q01DX009 (ip), vehicle: other); 168 % of control (dose: 50.0 mg/kg/injection, schedule: Q01DX009 (ip), vehicle: other); 97 % of control (dose: 100.0 mg/kg/injection, schedule: Q01DX009 (ip), vehicle: other).

With `O=C1COC(C(O)(c2ccccc2)c2ccccc2)C(=O)N1` (stereo not drawn), the T/C runs as follows: under setting [4], 107 % of control; under setting [5], 102 % of control; under setting [6], 98 % of control.

`COC12C(COC(=O)NCCO)C3=C(C(=O)C(C)=C(N)C3=O)N1CC1NC12` (stereo not drawn): the T/C reads like this: (dose: 3.12 mg/kg/injection, schedule: Q01DX009 (ip), vehicle: Klucel (hydroxypropylcellulose) (HPC)) 122 % of control; (dose: 3.13 mg/kg/injection, schedule: Q01DX009 (ip), vehicle: Klucel (hydroxypropylcellulose) (HPC)) 169 % of control; (dose: 4.5 mg/kg/injection, schedule: Q01DX009 (ip), vehicle: Klucel (hydroxypropylcellulose) (HPC)) 155 % of control; (dose: 6.25 mg/kg/injection, schedule: Q01DX009 (ip), vehicle: Klucel (hydroxypropylcellulose) (HPC)) 163 % of control and 175 % of control; (dose: 9.0 mg/kg/injection, schedule: Q01DX009 (ip), vehicle: Klucel (hydroxypropylcellulose) (HPC)) 190 % of control; (dose: 12.5 mg/kg/injection, schedule: Q01DX009 (ip), vehicle: Klucel (hydroxypropylcellulose) (HPC)) 160 % of control and 212 % of control. Further, the T/C was 192 % of control and 201 % of control and 238 % of control (dose: 18.0 mg/kg/injection, schedule: Q01DX009 (ip), vehicle: Klucel (hydroxypropylcellulose) (HPC)); 211 % of control and 214 % of control (dose: 25.0 mg/kg/injection, schedule: Q01DX009 (ip), vehicle: Klucel (hydroxypropylcellulose) (HPC)); 181 % of control and 182 % of control (dose: 28.0 mg/kg/injection, schedule: Q01DX009 (ip), vehicle: Klucel (hydroxypropylcellulose) (HPC)); 92 % of control (dose: 43.0 mg/kg/injection, schedule: Q01DX009 (ip), vehicle: Klucel (hydroxypropylcellulose) (HPC)); 104 % of control (dose: 50.0 mg/kg/injection, schedule: Q01DX009 (ip), vehicle: Klucel (hydroxypropylcellulose) (HPC)).

As to `Cc1ccc[n+](CCC(N)=O)c1`, the T/C was 100 % of control under setting [7], 100 % of control under setting [8] and 95 % of control under setting [9].

For `Cn1c(=S)[nH]c2scc(-c3ccccc3)c2c1=O`, the T/C is, setting by setting: under setting [4], 87 % of control; under setting [6], 96 % of control.

For `CC[As](CC)SCC1OC(OC(C)=O)C(OC(C)=O)C(OC(C)=O)C1OC(C)=O` (stereo not drawn), the T/C is, setting by setting: (dose: 50.0 mg/kg/injection, schedule: Q01DX009 (ip), vehicle: saline + alcohol) 99 % of control; under setting [10], 110 % of control; (dose: 100.0 mg/kg/injection, schedule: Q01DX009 (ip), vehicle: saline + alcohol) 100 % of control; under setting [11], 113 % of control; (dose: 200.0 mg/kg/injection, schedule: Q01DX009 (ip), vehicle: saline + alcohol) 109 % of control.

As to `S=C1SCCCN1c1ccccc1`, the T/C (dose: 100.0 mg/kg/injection, schedule: Q04DX003 (ip), vehicle: Klucel (hydroxypropylcellulose) (HPC)) is 100 % of control and the T/C (dose: 200.0 mg/kg/injection, schedule: Q04DX003 (ip), vehicle: Klucel (hydroxypropylcellulose) (HPC)) was 110 % of control.

In the case of `CCOC(=O)Nc1cc(Cl)ccc1O`, the T/C runs as follows: (dose: 100.0 mg/kg/injection, schedule: Q04DX003 (ip), vehicle: saline with Tween-80) 90 % of control; (dose: 200.0 mg/kg/injection, schedule: Q04DX003 (ip), vehicle: saline with Tween-80) 90 % of control; (dose: 400.0 mg/kg/injection, schedule: Q04DX003 (ip), vehicle: saline with Tween-80) 90 % of control.

Consider `Cc1ccc(N2CCCCN(c3ccc(C)cc3)/C(c3ccccc3)=C\2c2ccccc2)cc1`, for which the T/C runs as follows: (dose: 100.0 mg/kg/injection, schedule: Q01DX001 (ip), vehicle: Klucel (hydroxypropylcellulose) (HPC)) 91 % of control; (dose: 200.0 mg/kg/injection, schedule: Q01DX001 (ip), vehicle: Klucel (hydroxypropylcellulose) (HPC)) 91 % of control; (dose: 400.0 mg/kg/injection, schedule: Q01DX001 (ip), vehicle: Klucel (hydroxypropylcellulose) (HPC)) 101 % of control and 91 % of control.

In the case of `CCOC(OCC)c1ccc(-n2c(N)c(C#N)cnc2=S)c2c1OC2=NC=C(C#N)C#N`, the T/C runs as follows: under setting [10], 112 % of control; under setting [11], 102 % of control; (dose: 200.0 mg/kg/injection, schedule: Q01DX009 (ip), vehicle: saline) 100 % of control.

For `COC(=S)SCN(CSC(=S)OC)c1ccccc1Cl`, the T/C under setting [7] was 100 % of control, the T/C under setting [8] was 100 % of control and the T/C under setting [9] was 118 % of control.

As for `C=C1C(=O)OC2C1CCC(C)=C1CCC(C)(O)C12` (stereo not drawn), the T/C reads like this: (dose: 5.0 mg/kg/injection, schedule: Q01DX009 (ip), vehicle: saline with Tween-80) 97 % of control; (dose: 10.0 mg/kg/injection, schedule: Q01DX009 (ip), vehicle: saline with Tween-80) 105 % of control; (dose: 20.0 mg/kg/injection, schedule: Q01DX009 (ip), vehicle: saline with Tween-80) 107 % of control; (dose: 40.0 mg/kg/injection, schedule: Q01DX009 (ip), vehicle: saline with Tween-80) 107 % of control.

Turning to `Cc1ccc(NC(=S)SCc2ccco2)cc1Cl`, the T/C was 100 % of control (dose: 50.0 mg/kg/injection, schedule: Q01DX009 (ip), vehicle: suspension in saline); 103 % of control (dose: 100.0 mg/kg/injection, schedule: Q01DX009 (ip), vehicle: suspension in saline); 109 % of control (dose: 200.0 mg/kg/injection, schedule: Q01DX009 (ip), vehicle: suspension in saline).

Regarding `CCOC(=O)c1ccccc1Nc1c(C(=O)OCC)cnc2cc3c(cc12)OCO3`, the T/C is 106 % of control (dose: 60.0 mg/kg/injection, schedule: Q01DX005 (ip), vehicle: Klucel (hydroxypropylcellulose) (HPC)); 98 % of control (dose: 120.0 mg/kg/injection, schedule: Q01DX005 (ip), vehicle: Klucel (hydroxypropylcellulose) (HPC)); 97 % of control (dose: 240.0 mg/kg/injection, schedule: Q01DX005 (ip), vehicle: Klucel (hydroxypropylcellulose) (HPC)).

Take `COC(=O)C(=O)C1(c2ccccc2)C(=O)C(c2ccccc2)=CC1O` (stereo not drawn): the T/C is 104 % of control (dose: 60.0 mg/kg/injection, schedule: Q01DX005 (ip), vehicle: saline + Tween-80 + alcohol); 101 % of control (dose: 120.0 mg/kg/injection, schedule: Q01DX005 (ip), vehicle: saline + Tween-80 + alcohol); 100 % of control (dose: 240.0 mg/kg/injection, schedule: Q01DX005 (ip), vehicle: saline + Tween-80 + alcohol).

Values taken from PubChem BioAssay AID330 (DTP/NCI, 2004).
